What was measured:
[1] = molecular target: T1, Triosephosphate isomerase, glycosomal (Trypanosoma cruzi, UniProt P52270); assay: Inhibition of Trypanosoma cruzi recombinant triosephosphate isomerase after 2 hrs; conditions: read-out: I50
[2] = molecular target: Triosephosphate isomerase (Homo sapiens, UniProt P60174); assay: Inhibition of human recombinant triosephosphate isomerase after 2 hrs; conditions: read-out: I50
[3] = molecular target: T1, Triosephosphate isomerase, glycosomal; assay: Binding affinity to Trypanosoma cruzi recombinant triosephosphate isomerase; conditions: read-out: Kd(app)

T1 sequence (P52270 whole entry): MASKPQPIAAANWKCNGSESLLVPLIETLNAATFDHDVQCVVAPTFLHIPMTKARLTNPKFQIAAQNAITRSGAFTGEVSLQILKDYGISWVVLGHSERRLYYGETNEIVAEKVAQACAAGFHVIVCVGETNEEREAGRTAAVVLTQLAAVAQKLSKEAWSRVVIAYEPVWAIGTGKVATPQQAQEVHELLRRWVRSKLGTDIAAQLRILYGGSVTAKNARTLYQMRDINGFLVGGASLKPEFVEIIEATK
Triosephosphate isomerase, sequence (P60174 whole entry): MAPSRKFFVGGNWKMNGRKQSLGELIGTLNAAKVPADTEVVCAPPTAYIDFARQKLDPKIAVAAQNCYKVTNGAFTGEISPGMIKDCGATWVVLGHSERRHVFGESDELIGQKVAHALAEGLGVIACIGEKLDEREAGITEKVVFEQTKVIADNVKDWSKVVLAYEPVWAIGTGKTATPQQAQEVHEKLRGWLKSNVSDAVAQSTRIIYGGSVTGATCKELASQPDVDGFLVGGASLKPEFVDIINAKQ

| SMILES | IC50 [1] | IC50 [2] | Kd [3] |
| --- | --- | --- | --- |
| CCOC(=O)C1CC(=O)c2oc(=O)c3cc(O)c(O)c(O)c3c21 (centres undefined) [ETHYLBREVIFOLIN CARBOXYLATE] | 8 µM | > 1000 µM |  |
| CCCCOC(=O)C1CC(=O)c2oc(=O)c3cc(O)c(O)c(O)c3c21 (centres undefined) [BUTYLBREVIFOLIN CARBOXYLATE] | 14 µM | > 1000 µM |  |
| COC(=O)C1CC(=O)c2oc(=O)c3cc(O)c(O)c(O)c3c21 (centres undefined) [METHYLBREVIFOLIN CARBOXYLATE] | 6.5 µM | > 1000 µM | 10.4 µM |
| COC(=O)C1CC(=O)c2oc(=O)c3cc(OC)c(OC)c(OC)c3c21 (centres undefined) | > 1000 µM | > 1000 µM |  |
